According to patent US12194053B2, “Compositions and methods for reducing oxidative damage” (University of Louisville Research Foundation, Inc., priority 2012, dated 2025):
Where two headings read alike, the source gives them in different places.

Test system: porcine lenses
Source text: To analyze the efficacy and the biocompatibility of the compositions produced as described above, an ex viva analysis was undertaken in which the compositions were applied to eye lenses ex vivo. In these experiments, harvested porcine lenses were utilized.
Upon establishing the culturing conditions for the lenses, hyperoxic conditions were created and used to test the efficacy of the gelled compositions in protecting against oxidative damage and cataract formation. Briefly, in these experiments, two methods were used to test the efficacy of the compositions in preventing oxidative lens damage. Initially, oxidative damage with superoxide radicals generated by the addition of hydrogen peroxide into the lens culture medium was employed.

For `OO` [H2O2, hydrogen peroxide], which “day lens clarity started to be affected” value (0.3 mM H2O2) is on record?
Its value is 9 days.

What about the “lens area opacified by day 14” value (0.3 mM H2O2) of the same molecule?
The value was 40%.

And the “day lens opacity started” value (0.4 mM H2O2)?
Its value is 5 days.

And the “lens area covered by opacity by day 14” value (0.4 mM H2O2)?
Its value is 60%.

What about the “day lens opacity started” value (0.5 mM H2O2) of the same molecule?
Its value is 3 days.

What about the “lens opacity on day 14” value (0.5 mM H2O2) of the same molecule?
Its value is 90%.

What about the “extent of cataract by day 5” value (1 mM H2O2) of the same molecule?
Its value is “total cataract”.

What about the “time lens opacity first appeared” value (1 mM H2O2 in lens culture medium) of the same molecule?
The value was 24 h.

And the lens opacification (H2O2 concentrations below 0.3 mM, up to 28 days of ex vivo culturing)?
Its lens opacification is “did not appear to cause any lens opacification”.
